Type in all cases: cell-based
For experiment [1], the system named is IL-17. In words: IL-17 ELISA in PBMCs pretreated with active, induced with PMA/ionomycin. The following applies: PBMCs pretreated with 0.001% active for 24 hours, induction 24 hours with 25 ng PMA/ 1 µg lonomycin; control 732; lower = more anti-inflammatory. On the procedure: (§1) The procedure used to measure the anti-inflammatory potential of the various samples was as follows: Blood was diluted with equal volume of HBSS or PBS(1:1). The PBMCs were isolated into fresh tube. These PBMC's were then plated in 96 well plate (10^6 cell/well). They were then pretreated with the active (for 24 hours). Induction was then carried out with antigen/mitogen for 24 hours. The cell-supernatant was then taken and frozen. The cytokine levels in these supernatants were detected by ELISA.

Experiment [2] deals with IL-8. In words: IL-8 ELISA in PBMCs exposed to P.acne (with or without antimicrobial treatment of the bacteria). On the procedure: Actives/ Compositions as shown in Table-8 were measured for effect on inflammatory marker IL-8 using the following procedure: PBMCs were isolated as discussed before for Example-1. They were then plated in a 96-well plate. In some wells, cells were pre-treated with 0.001% Andrographolide for 24 hours and some wells were not treated with anything. P.acne culture was grown on CY agar medium in aneorobic chamber and then culture was set to the .005 O.D. Bacterial culture was treated with antimicrobial active combination of thymol (0.05%) and terpineol (0.05%) for 30 seconds. After the contact time is over, sample was neutralized in D/E neutralizer. The bacterial pellet was collected by centrifugation. The pellet was re-suspended in cell culture medium and bacterial culture was added to the cells (PBMC's) treated with andrographolide and also bacterial culture was added to the wells where there was no treatment with andrographolide. Live P.acne (not treated with the antimicrobial actives) was added to the wells where there was no treatment with andrographolide and also added to the wells treated with andrographolide. The treated cells were incubated in 37° C incubator for 24 hours. After 24 hours the supernatant was removed and ELISA was done for IL-8 marker.
The same procedure was followed as explained in the previous section for this experiment. The antimicrobials which were used for this experiment were thymol, terpineol, Triclosan (TCN) and Trichlorocarban (TCC). The used concentrations of these antimicrobials and the concentration of the IL-8 marker after the treatment are summarized in the following Table 9. Table - 9

For experiment [3], the system named is TNF-alpha. In words: TNF-alpha ELISA in PBMCs pretreated with active, induced with PMA/ionomycin. Conditions: 0.001% active, 25 ng PMA/ 1 µg lonomycin, control 5384, lower = more anti-inflammatory. Here is the method: as §1
The experiments were conducted using a similar procedure as earlier except that TNF-alpha ELISA was measured as a marker. Table -2

Experiment [4] has as its system IL-17. In words: Co-treatment with different actives, cytokine ELISA in PBMCs. The following applies: co-treatment with 0.001% active, 25 ng PMA/ 1 µg lonomycin; control 2244.
Experiment [5] concerns TNF-alpha. In words: TNF-alpha ELISA in primary keratinocytes, LPS-induced inflammation. Conditions: primary keratinocytes pretreated 24 hours with 0.001% active, 25 µg LPS; control 283. On the procedure: (§2) The procedure used to measure the anti-inflammatory potential of the various samples was as follows: The primary keratinocytes were seeded in a 24 well plate (80000 cell/well). On attaining full confluency, the cells were pretreated with the active for 24 hours. Inflammation was induced either through using LPS or through use of live and heat treated P. acnes for 24 hours. The cell-supernatant was then taken and frozen. The cytokine levels in these supernatants were detected by ELISA.

Experiment [6] deals with IL-8. In words: IL-8 ELISA in keratinocytes induced with LPS, heat killed or live P. acnes. Here is the method:
as §2
The experiments as shown in Table - 6 were studies using keratinocyte cell lines and the IL-8 concentration was measured. Table - 6
Examples K, 9 and 10: Experiments similar to J, 7 and 8 except that live p.acne was used

The subject of experiment [7] is TNF-alpha. In words: TNF-alpha ELISA in PBMCs exposed to P.acne (with or without antimicrobial treatment of the bacteria). The following applies: Table 10: PBMCs; Andrographolide pre-treatment (0.001% per procedure); P.acne treated with 0.05% Thymol, 0.05% Terpineol or 0.2% Silver Oxide; P.acne alone 635.6.
The next experiment has as its system bacterial cells. In words: Antibacterial contact-time kill test (pour plate count after neutralisation). Conditions: 0.2% TCC or 0.2% thymol + 0.5% terpineol. On the procedure:
Efficacy of two compositions as shown in Table - 4 were measured as follows: The O.D of the bacterial cells were adjusted such that it corresponds to 1X10^8 cells of bacteria. 1ml of the bacterial culture was taken and added to 9 ml of the test solution (containing the antimicrobial active). The mixture was kept for the desired amount of time after which it was neutralized by adding 1 ml of mix to the 9 ml of D/E neutralizer. It was then serially diluted till 10^5. The number of bacteria was then enumerated by using the pour plate method.

The mark [8] stands for this setting: Table 9: PBMCs, Andrographolide pre-treatment (0.001% per procedure), P.acne treated with 0.05% Thymol, 0.05% Terpineol, 0.2% TCC, 0.2% TCN or 0.2% Silver Oxide, P.acne alone 641.5.

Each structure is given as a SMILES string.

On to `CCC(C)(C)C(=O)O[C@H]1C[C@@H](C)C=C2C=C[C@H](C)[C@H](CC[C@@H]3C[C@@H](O)CC(=O)O3)[C@H]21` [Simvastatin, reference compound], for which, in the experiment with IL-17 [1], the IL-17 concentration came to 493 pg/mL.
In the case of `Oc1cc(Cl)ccc1Oc1ccc(Cl)cc1Cl` [TCN, Triclosan, reference compound], the IL-8 concentration in the experiment on IL-8 [2] (setting [8]) amounted to 613.15 pg/mL.
In the case of `C=C1CC[C@@H]2[C@](C)(CO)[C@H](O)CC[C@@]2(C)[C@@H]1C/C=C1/C(=O)OC[C@H]1O` [Andrographolide, andrographolide], the IL-17 concentration in the experiment on IL-17 [1] was determined as 143 pg/mL; in the experiment with IL-17 [4], 1187 pg/mL. Moreover, the TNF-alpha concentration with TNF-alpha [3] came out at 58 pg/mL; with TNF-alpha [5] it was 156 pg/mL; with TNF-alpha [7] it was 231.15 pg/mL. The IL-8 concentration was found to be 229 pg/mL in the experiment on IL-8 [6] (0.01% active, inducer 50 µg LPS, control 649); 1088 pg/mL with IL-8 [6] (0.01% active, inducer heat killed P. acnes, control 2238); 337 pg/mL in the experiment on IL-8 [6] (0.01% active, inducer live P. acnes, control 558); 78 pg/mL with IL-8 [6] (0.1% active, inducer 50 µg LPS, control 649); 230 pg/mL in the experiment on IL-8 [6] (0.1% active, inducer heat killed P. acnes, control 2238); 205 pg/mL with IL-8 [6] (0.1% active, inducer live P. acnes, control 558). Moreover, the IL-8 concentration amounted to 400 pg/mL in the experiment on IL-8 [2] (Table 8: PBMCs pre-treated with 0.001% Andrographolide for 24 hours and/or P.acne treated with thymol (0.05%) and terpineol (0.05%) for 30 seconds, P. acnes alone 957); 276.48 pg/mL in the experiment on IL-8 [2] (setting [8]).
For `[Ag+].[Ag+].[O-2]` [Silver Oxide, silver oxide, reference compound], the IL-8 concentration in the experiment with IL-8 [2] (setting [8]) amounted to 599.8 pg/mL. Further, the TNF-alpha concentration with TNF-alpha [7] worked out at 494.3 pg/mL.
Take `CC1=C(/C=C/C(C)=C/C=C/C(C)=C/CO)C(C)(C)CCC1` [Retinol]: the IL-17 concentration in the experiment with IL-17 [4] came to 2006 pg/mL.
Take `CC1=C(/C=C/C(C)=C/C=C/C(C)=C/C(=O)O)C(C)(C)CCC1` [Retinoic acid]: in the experiment on IL-17 [4], the IL-17 concentration worked out at 2762 pg/mL.
Consider `O=C(Nc1ccc(Cl)cc1)Nc1ccc(Cl)c(Cl)c1` [TCC, Trichlorocarbanilide], for which the “Log CFU/ml” value in the experiment with bacterial cells (contact time 15 seconds, 1X10^8 cells of bacteria) turned out to be 7.1 Log CFU/ml; in the experiment with bacterial cells (contact time 30 seconds) it was 7.1 Log CFU/ml; in the experiment with bacterial cells (contact time 1 minute), 7.1 Log CFU/ml; in the experiment on bacterial cells (contact time 5 minutes), 7.1 Log CFU/ml. In the experiment on IL-8 [2] (setting [8]), the IL-8 concentration was 626.48 pg/mL.
As for `Cc1ccc(C(C)C)c(O)c1` [Thymol, thymol], in the experiment on IL-8 [2] (setting [8]), the IL-8 concentration is 546.38 pg/mL. In addition, the TNF-alpha concentration with TNF-alpha [7] is 546.94 pg/mL.

Source of the values: patent publication EP3102180B1, “A TOPICAL COMPOSITION” (Unilever N.V., priority 2014, dated 2015).
